Experimental data as given in patent US7261876B2, “Multivalent constructs for therapeutic and diagnostic applications” (Bracco International BV, priority 2002, dated 2007).
No end group written: not given here.

Tests used:
[1] = target: T1, KDR-transfected 293H cells (Homo sapiens, UniProt P35968); experiment: Binding of radiolabeled (Tc, I, Lu) peptides to KDR-transfected 293H cells
T1 construct: Both PCR products were digested with Not1 and ligated together to create the full-length receptor; V5-His (encoded by the vector); expressed in transfected cells; host or cells: 293H cells (Invitrogen cat. # 11631), transient lipofectamine 2000 transfection
T1 sequence (P35968 20-1356): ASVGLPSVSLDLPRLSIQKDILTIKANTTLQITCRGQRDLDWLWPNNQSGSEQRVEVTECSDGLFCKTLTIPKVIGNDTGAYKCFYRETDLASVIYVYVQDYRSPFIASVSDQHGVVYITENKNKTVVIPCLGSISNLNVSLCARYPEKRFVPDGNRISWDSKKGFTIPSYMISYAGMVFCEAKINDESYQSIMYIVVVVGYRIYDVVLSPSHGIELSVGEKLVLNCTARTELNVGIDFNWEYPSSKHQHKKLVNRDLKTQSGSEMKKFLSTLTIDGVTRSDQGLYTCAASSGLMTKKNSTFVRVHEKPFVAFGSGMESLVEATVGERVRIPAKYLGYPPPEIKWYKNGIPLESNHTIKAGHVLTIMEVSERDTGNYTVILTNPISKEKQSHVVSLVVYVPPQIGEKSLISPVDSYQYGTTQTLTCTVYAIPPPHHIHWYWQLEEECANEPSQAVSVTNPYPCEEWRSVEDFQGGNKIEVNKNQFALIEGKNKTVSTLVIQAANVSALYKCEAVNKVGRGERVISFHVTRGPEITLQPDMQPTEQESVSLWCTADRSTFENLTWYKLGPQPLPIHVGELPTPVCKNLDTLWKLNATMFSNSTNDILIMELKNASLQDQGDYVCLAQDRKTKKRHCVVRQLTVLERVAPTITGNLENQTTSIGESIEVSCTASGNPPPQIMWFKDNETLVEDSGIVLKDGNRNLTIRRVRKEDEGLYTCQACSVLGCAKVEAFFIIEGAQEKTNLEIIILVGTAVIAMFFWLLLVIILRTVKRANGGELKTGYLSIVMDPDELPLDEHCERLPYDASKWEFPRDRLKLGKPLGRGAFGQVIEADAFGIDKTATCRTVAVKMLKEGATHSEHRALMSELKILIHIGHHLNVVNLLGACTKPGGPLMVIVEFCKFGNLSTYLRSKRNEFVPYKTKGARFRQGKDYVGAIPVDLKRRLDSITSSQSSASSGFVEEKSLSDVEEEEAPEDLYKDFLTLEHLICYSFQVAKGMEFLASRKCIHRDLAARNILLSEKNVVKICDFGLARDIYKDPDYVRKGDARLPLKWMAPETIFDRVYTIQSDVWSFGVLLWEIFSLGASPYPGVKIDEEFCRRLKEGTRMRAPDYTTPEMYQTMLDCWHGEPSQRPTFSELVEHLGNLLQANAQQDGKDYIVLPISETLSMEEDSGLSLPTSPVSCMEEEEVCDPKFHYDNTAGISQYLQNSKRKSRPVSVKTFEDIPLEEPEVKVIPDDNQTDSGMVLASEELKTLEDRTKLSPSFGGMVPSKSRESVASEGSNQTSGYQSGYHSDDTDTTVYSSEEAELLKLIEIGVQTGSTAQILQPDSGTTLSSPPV

[2] = target: T1, KDR-transfected 293H cells; experiment: Binding of peptide-conjugated microbubbles to KDR-transfected cells; format: cell-based; conditions: Experiment C; 50% human serum
Protocol: 293H cells were transfected with KDR cDNA. […] Competition was also performed using a non-binding control peptide as a competing compound.
293H cells were transfected with KDR cDNA.
D23 (a dimeric construct of P6- and P12-derived sequences) was conjugated with a preparation of microbubbles as above described, according to the following methodology. The thioacetylated peptide ([…]) was dissolved in 20 μl DMSO and then diluted in 1 ml of Phosphate Buffer Saline (PBS). This solution was mixed to the N-MPB-functionalized microbubbles dispersed in 18 ml of PBS-EDTA 10 mM, pH 7.5 and 2 ml of deacetylation solution (50 mM sodium phosphate, 25 mM EDTA, 0.5 M hydroxylamine.HCl, pH 7.5) was added. The headspace was filled with C4F10/Air (50/50) and the mixture was incubated for 2.5 hours at room temperature under gentle agitation (rotating wheel), in the dark. Conjugated bubbles were washed by centrifugation. Similarly, the monomer peptides making up D23 were separately conjugated to two different microbubble preparations according to the methodology described above.

[3] = target: T2, KDR-expressing 293H cells (Homo sapiens, UniProt P35968); experiment: Bead-binding assay, peptide-conjugated fluorescent beads; format: cell-based; conditions: Neutravidin-coated beads, 40% FBS
T2 construct: Both PCR products were digested with Not1 and ligated together to create the full-length receptor; V5-His (encoded by the vector); expressed in transfected cells; host or cells: 293H cells (Invitrogen cat. # 11631), transient lipofectamine 2000 transfection
T2 sequence (P35968 20-1356): as above
Protocol: As a positive control, biotinylated anti-KDR antibody was incubated with the Neutravidin-coated beads as above, except that 0.03 mg of the biotinylated antibody preparation in PBS (Gibco 14190-136) was used instead of peptide solution. Beads can be stored at 4° C. until needed for up to 1 week.
293H cells were transfected using the protocol described in Example 6. Transfection was done in black/clear 96-well plates (Becton Dickinson, cat. # 354640). The cells in one half of the plate (48 wells) were mock-transfected (with no DNA) and those in the other half of the plate were transfected with KDR cDNA. The cells were 80–90% confluent at the time of transfection and completely confluent the next day, at the time of the assay; otherwise the assay was aborted.
From the above bead preparations, 0.12 mL was spun for 10 minutes at 2000 rpm in a microcentrifuge at room temperature. The supernatant was removed and 0.06 mL of MES pH 6.0 was added. Each bead solution was then vortexed and sonicated in a water bath 15 min. To 1.47 mL of DMEM, high glucose (GIBCO 11965-084) with 1×MEM Non-Essential Amino Acids Solution (NEAA) (GIBCO 11140-050) and 40% FBS (Hyclone SH30070.02) 0.03 mL of the sonicated bead preparations was added. 96-well plates seeded with 293H cells which have been mock-transfected in columns 1 to 6, and KDR-transfected in columns 7 to 12 (as described above), were drained and washed once with DMEM, high glucose with 1×NEAA and 40% FBS. To each well was added 0.1 mL of bead solution, six wells per bead preparation. […] After draining, 0.1 mL of PBS was added per well. The plates were then read on a Packard FluoroCount fluorometer at excitation 550 nm/emission 620 nm. Unconjugated Neutravidin beads were used as a negative control while beads conjugated with a biotinylated anti-KDR antibody were used as the positive control for the assay.
To calculate the number of beads bound per well, a standard curve with increasing numbers of the same fluorescent beads was included in each assay plate. The standard curve was used to calculate the number of beads bound per well based on the fluorescence intensity of each well.

[4] = tested on: HUVECs; experiment: Endothelial cell proliferation assay, BrdU detection; format: cell-based, human; conditions: 10 μg/mL, in the presence of VEGF (30 ng/mL)
Protocol: Briefly, freshly isolated HUVECs (between p3–6) were cultured in RPMI+10% FCS+1% antibiotics+1% 1-glutamin+0.4% BBE (bovine brain extract) and seeded per well, 5000–10000/well in 100 μL. The cells were allowed to recover for 24 h prior to use. Then the cells were washed with PBS twice and treated for 48 h with anti-VEGF antibody (positive control) or peptides A, B and C (0.1 and 10 ug/mL) in RPMI+0.1% BSA+1% 1-glutamin. The following 6 variables were tested in 2 series (n=4): • Series I: w/o VEGF • Series II: w/VEGF (30 ng/mL) • 1. Standard medium: RPMI+10% FCS+1% antibiotics+1% 1-glutamin+0.4% BBE • 2. Negative control 1: RPMI (true starvation) • 3. Negative control 2: RPMI+0.1% BSA+1% 1-glutamin • 1. Positive control: anti-VEGF 10 μg/ml in RPMI+0.1% BSA+1% 1-glutamin • 5. 0.1 μg/ml KDR peptides in RPMI+0.1% BSA+1% 1-glutamin • 6. […] Note: Background binding was determined by omitting the anti-BrdU antibody in 4 wells with control cells (cultured in complete medium; EBM+BulletKit) and by complete labeling of cells that was not exposed to BrdU.

[5] = target: T3, KDR-expressing cells (Homo sapiens, UniProt P35968); experiment: Displacement assay competing with P12-XB/streptavidin-HRP complex for binding to KDR-expressing cells; conditions: complex concentration 5.5 nM
T3 construct: Both PCR products were digested with Not1 and ligated together to create the full-length receptor; V5-His (encoded by the vector); expressed in transfected cells; host or cells: 293H cells (Invitrogen cat. # 11631), transient lipofectamine 2000 transfection
T3 sequence (P35968 20-1356): as above
Protocol: After determining the specific binding under each experimental condition, the IC50 for each peptide was determined (where possible).

[6] = tested on: SW-480 human colon carcinoma cells; experiment: In vivo xenograft tumor model; conditions: Study Day 22; 6.0 mg/kg IV, five doses
Protocol: Female athymic nude mice (Crl:NU/NU-nuBR) at 6–8 weeks of age were used in this study. […] Test compound and vehicle were administered intraperitoneally (IP), Cisplatin was administered intravenously (IV). Tumor measurements were recorded twice weekly using hand-held calipers. Mice were monitored daily for signs of toxicity and morbidity. At study termination, animals were euthanized by carbon dioxide overdose and necropsied for tissue collection.
A total of nine (9) groups were used in this study. Each group contained ten (10) tumor-bearing mice. Groups 1 and 2 contained untreated and vehicle treated negative control mice, respectively. […] Group 9 contained mice that received cisplatin, a standard chemotherapeutic compound as a positive control.
Dosing began the same day that animals were randomly sorted into groups (Study Day 7). Each dose was removed from the dose vial using aseptic technique for each animal and the injection site was wiped with an alcohol swab prior to dose administration. […]
Clinical Observations of each animal were performed and recorded at least once daily for toxicity, morbidity and mortality. […]
In accordance with the protocol, tumor measurements were taken twice weekly throughout the study by measuring the length and width of tumors with calibrated calipers. […] Tumor weights were calculated using the following formula: mg=(L×W^2)/2. […]

With “Tc-labeled D18: 99mTc-labeled scrambled dimer D18 (peptide 1 APGTWCDYDWEYCWLGTFGGGK; peptide 2 GVDFRCEWSDWGEVGCRSPDYGGGK; not fully specified (bridges); cysteine pairing not given here; also: 99mTc label, site not given here, heterodimer, linkage not given here)” the “binding of radiolabeled compound to KDR transfected vs mock transfected 293H cells” value [1] was “displayed no affinity for either mock-transfected or KDR-transfected 293H cells”.

In the case of GDSRVCWEDSWGGEVCFRYDP [P6], the “binding of conjugated microbubbles” value [2] is reported as “bound poorly” and the “binding of ligand-coated fluorescent beads to KDR-transfected vs mock-transfected cells” value [3] is reported as “Specific binding to KDR was detected”.

In the case of `CC(=O)N[C@@H](C)C(=O)NCC(=O)N1CCC[C@H]1C(=O)N[C@H](C(=O)N[C@@H](Cc1c[nH]c2ccccc12)C(=O)N[C@H]1CSSC[C@@H](C(=O)N[C@@H](Cc2c[nH]c3ccccc23)C(=O)N[C@@H](CC(C)C)C(=O)N[C@@H](Cc2ccccc2)C(=O)NCC(=O)N[C@H](C(=O)NCC(=O)NCC(=O)NCC(=O)N[C@@H](CCCCN)C(N)=O)[C@@H](C)O)NC(=O)[C@H](Cc2ccc(O)cc2)NC(=O)[C@H](Cc2ccc(O)cc2)NC(=O)[C@H](Cc2c[nH]c3ccccc23)NC(=O)[C@H](CC(=O)O)NC(=O)[C@H](CC(=O)O)NC(=O)[C@H](CCC(=O)O)NC1=O)[C@@H](C)O` [P12-G, Ac-AGPTWC*EDDWYYC*WLFGT-GGGK-NH2], the “inhibition of HUVEC proliferation” value [4] is reported as “does not inhibit proliferation”.

Ac-DWYYGGGK-NH2 [F1] was tested, and the “inhibition of P12-XB streptavidin-HRP complex binding” value [5] was “IC50 below one micromolar”.

Molecule `N.N.[Cl][Pt][Cl]` [Cisplatin] has a mean tumor weight [6] of 995 mg.
